Assays:
human orexin-1 receptor = human orexin-1 receptor (Homo sapiens (Human), UniProt O43613); assay: In vitro assay: intracellular calcium measurements (FLIPR), antagonistic activity; format: cell-based; settings: CHO cells expressing human orexin-1 receptor, orexin-A agonist, geometric mean, read-out: IC50 Ox1
Summary of the method: (§1)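 Orexin-A-evoked calcium rise (3 nM final, roughly EC70) was recorded with fluo-4 in recombinant CHO cells, human receptor subtype 1 or 2.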

human orexin-2 receptor = human orexin-2 receptor (Homo sapiens (Human), UniProt O43614); assay: as above; format: cell-based; settings: CHO cells expressing human orexin-2 receptor, orexin-A agonist, geometric mean, read-out: IC50 Ox2
Chain of human orexin-2 receptor (O43614 whole entry): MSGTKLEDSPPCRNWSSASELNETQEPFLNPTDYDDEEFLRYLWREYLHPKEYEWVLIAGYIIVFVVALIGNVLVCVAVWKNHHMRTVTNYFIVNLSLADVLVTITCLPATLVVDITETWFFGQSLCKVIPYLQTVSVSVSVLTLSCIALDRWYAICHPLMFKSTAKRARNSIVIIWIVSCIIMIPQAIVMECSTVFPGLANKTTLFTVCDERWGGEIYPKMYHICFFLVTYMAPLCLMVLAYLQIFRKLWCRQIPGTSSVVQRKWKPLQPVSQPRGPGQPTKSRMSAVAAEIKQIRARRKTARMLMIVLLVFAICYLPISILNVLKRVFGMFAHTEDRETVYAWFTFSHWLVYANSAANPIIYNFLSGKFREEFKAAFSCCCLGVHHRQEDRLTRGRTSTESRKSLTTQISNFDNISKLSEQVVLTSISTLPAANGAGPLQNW
Summary of the method: as §1

Chain of human orexin-1 receptor (O43613 whole entry): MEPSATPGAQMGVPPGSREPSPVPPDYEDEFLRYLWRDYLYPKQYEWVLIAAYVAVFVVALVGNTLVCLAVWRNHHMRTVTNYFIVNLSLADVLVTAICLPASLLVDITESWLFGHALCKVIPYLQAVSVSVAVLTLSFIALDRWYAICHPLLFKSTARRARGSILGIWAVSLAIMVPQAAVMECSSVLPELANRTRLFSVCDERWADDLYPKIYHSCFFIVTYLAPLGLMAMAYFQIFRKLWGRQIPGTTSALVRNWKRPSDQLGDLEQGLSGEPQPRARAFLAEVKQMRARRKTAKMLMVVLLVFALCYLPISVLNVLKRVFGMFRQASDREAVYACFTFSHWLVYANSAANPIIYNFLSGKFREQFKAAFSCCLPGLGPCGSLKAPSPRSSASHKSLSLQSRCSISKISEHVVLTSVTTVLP

SMILES | IC50 (human orexin-1 receptor) [nM] | IC50 (human orexin-2 receptor) [nM]
Cc1cc2[nH]c([C@@H]3[C@@H](C)CCN3C(=O)c3c(F)cccc3-c3cccnc3)nc2cc1Cl [Ex. 4.107] | 47 | 1760
C=C1C[C@@H](c2nc3cccc(C)c3[nH]2)N(C(=O)c2nc(C)sc2-c2ccc(F)cc2)C1 [Ex. 6.106] | 99 | 5
Cc1ccc(-c2ccc(C#N)cc2)c(C(=O)N2CCC[C@@]2(C)c2nc3cc(C(F)(F)F)ccc3[nH]2)c1 [Ex. 5.193] | 24 | 203
Cc1nc(C(=O)N2CCCC2c2nc3c(C(F)(F)F)cccc3[nH]2)c(-c2ccccc2)s1 (stereo not drawn) [Ex. 1.129] | 93 | 124
Cc1ccc(-c2ccc(F)cc2)c(C(=O)N2CCC[C@@]2(C)c2nc3c(C)c(C)ccc3[nH]2)c1 [Ex. 5.115] | 22 | 18
CCc1ccc(-c2sc(C)nc2C(=O)N2CCC[C@H]2c2nc3ccc(OC)cc3[nH]2)cc1 [Ex. 1.24] | 850 | 81
Cc1nc(C(=O)N2CC[C@H](C)[C@H]2c2nc3c(Cl)cccc3[nH]2)c(-c2cc(F)cc(F)c2)s1 [Ex. 4.119] | 21 | 2050
COc1cc2nc([C@]3(C)CCCN3C(=O)c3nc(C)sc3-c3cc(F)cc(F)c3)[nH]c2cc1OC [Ex. 5.76] | 33 | 47
COc1cc2nc([C@@H]3[C@@H](C)CCN3C(=O)c3c(C)cccc3-n3nccn3)[nH]c2cc1OC [Ex. 4.48] | 391 | 1320
Cc1ccc(-c2cccc(C(F)(F)F)c2)c(C(=O)N2CCC[C@@]2(C)c2nc3cc(C(F)(F)F)c(Cl)cc3[nH]2)c1 [Ex. 5.155] | 134 | 249
C=C1CC(c2nc3cc(OC)ccc3[nH]2)N(C(=O)c2nc(C3CC3)sc2-c2cccc(C)c2)C1 (racemic) [Ex. 6.86] | 22 | 20
Cc1ccc(-n2nccn2)c(C(=O)N2CC[C@H](C)[C@H]2c2nc3cccc(C)c3[nH]2)c1 [Example 4.1, (5-methyl-2-(2H-1,2,3-triazol-2-yl)phenyl)((2S,3S)-3-methyl-2-(7-methyl-1H-benzo[d]imidazol-2-yl)pyrrolidin-1-yl)methanone] | 29 | 778
COc1ccc(-c2sc(C)nc2C(=O)N2CCC[C@@]2(C)c2nc3cc(OC)c(OC)cc3[nH]2)cn1 [Ex. 5.77] | 64 | 153
Cc1ccc(-c2ccc(C)cc2C(=O)N2CCC[C@@]2(C)c2nc3cc(C)c(C)cc3n2CC2CC2)cc1 [Ex. 7.39] | 43 | 61
CSc1ccc2nc([C@@H]3CCCN3C(=O)c3nc(C)sc3-c3cccc(C(F)(F)F)c3)[nH]c2c1 [Ex. 1.38] | 360 | 110
C[C@@]1(c2nc3cc(C(F)(F)F)ccc3[nH]2)CCCN1C(=O)c1ccccc1-n1nccn1 [Ex. 5.167] | 91 | 351
Cc1nc(C(=O)N2CCCC2c2nc3cc(C)c(C)cc3[nH]2)c(-c2ccccc2)s1 (stereo not drawn) [Ex. 1.122] | 55 | 45
COc1ccc(-c2cccc(C(F)(F)F)c2)c(C(=O)N2CCC[C@@]2(C)c2nc3ccc(Cl)c(C)c3[nH]2)c1F [Ex. 5.303] | 29 | 21
C=C1C[C@@H](c2nc3cc(C)c(C)cc3[nH]2)N(C(=O)c2cc(Cl)ccc2-n2nccn2)C1 [Ex. 6.193] | 41 | 4
C=C1CC(c2nc3cc(C(C)(C)C)ccc3[nH]2)N(C(=O)c2nc(C3CC3)sc2-c2cccc(C)c2)C1 (stereo not drawn) [Ex. 6.96] | 234 | 68
C=C1C[C@@H](c2nc3cc(Cl)c(C(F)(F)F)cc3[nH]2)N(C(=O)c2ccccc2-n2nccn2)C1 [Ex. 6.178] | 44 | 10
C=C1C[C@@H](c2nc3cc(C(C)(C)C)ccc3[nH]2)N(C(=O)c2c(-n3nccn3)ccc(C)c2F)C1 [Ex. 6.164] | 100 | 9
C=C1CN(C(=O)c2cc(OC)ccc2-n2nccn2)C(C)(c2nc3cc(OC)ccc3[nH]2)C1 (stereo not drawn) [Ex. 6.158] | 57 | 35
Cc1cccc(-c2ccc(C)cc2C(=O)N2CCC[C@@]2(C)c2nc3cc(C)c(C)cc3n2CC2CC2)c1 [Ex. 7.26] | 42 | 54
COc1cc2nc([C@]3(C)CCCN3C(=O)c3c(-n4nccn4)ccc(C)c3F)[nH]c2cc1OC [Ex. 5.68] | 141 | 150
C=C1C[C@@H](c2nc3ccc(Cl)c(C)c3[nH]2)N(C(=O)c2cc(C)ccc2-n2cccn2)C1 [Ex. 6.134] | 75 | 10
C=C1C[C@@H](c2nc3cc(Cl)c(C(F)(F)F)cc3[nH]2)N(C(=O)c2nc(C)ccc2-n2cccn2)C1 [Ex. 6.189] | 47 | 25
COc1cc2nc([C@@H]3[C@@H](C)CCN3C(=O)c3cc(Cl)ccc3-n3nccn3)[nH]c2cc1OC [Ex. 4.40] | 21 | 28

These reach a lower IC50 (human orexin-1 receptor). Values come first.

IC50 (human orexin-1 receptor) [nM] | IC50 (human orexin-2 receptor) [nM] | SMILES
6 | 13 | CO[C@@H]1C[C@@H](c2nc3ccc(Cl)c(C)c3[nH]2)N(C(=O)c2ccccc2-c2ccc(C)c(C)c2)C1 [Ex. 3.38]
8 | 8 | COc1ccc(-c2sc(C)nc2C(=O)N2C[C@H](OC)C[C@H]2c2nc3ccc(Cl)c(C)c3[nH]2)cc1 [Ex. 3.37]
16 | 44 | Cc1c(Cl)ccc2nc([C@]3(C)CCCN3C(=O)c3c(F)cccc3-c3ccccc3)[nH]c12 [Ex. 5.225]
19 | 23 | C=C1CC(c2nc3cc(C(C)(C)C)ccc3[nH]2)N(C(=O)c2cc(C)sc2-c2ccc(C)c(C)c2)C1 (stereo not drawn) [Ex. 6.81]
20 | 210 | C[C@@]1(c2nc3cc(C(F)(F)F)c(Cl)cc3[nH]2)CCCN1C(=O)c1cc(C(F)(F)F)ccc1-n1nccn1 [Ex. 5.144]
5 | 4 | CO[C@H]1CN(C(=O)c2nc(C)sc2-c2cccc(Cl)c2)[C@](C)(c2nc3c(C)c(Cl)ccc3[nH]2)C1 [Ex. 3.31]
14 | 10 | C=C1CC(c2nc3cc(Cl)c(C(F)(F)F)cc3[nH]2)N(C(=O)c2nc(C3CC3)sc2-c2cccc(C)c2)C1 (racemic) [Ex. 6.97]
10 | 0.9 | C=C1C[C@@H](c2nc3cccc(C)c3[nH]2)N(C(=O)c2nc(C)sc2-c2cccc(C)c2)C1 [Ex. 6.101]
20 | 116 | CSc1cccc2nc([C@@H]3CCCN3C(=O)c3cnc(C)nc3-c3cccc(Cl)c3)[nH]c12 [Ex. 1.81]
9 | 2 | Cc1nc(C(=O)N2CCC[C@@]2(C)c2nc3c(C)cccc3n2C)c(-c2cccc(Cl)c2)s1 [Ex. 7.5]
5 | 800 | Cc1ccc(-n2cccn2)c(C(=O)N2CC[C@H](C)[C@H]2c2nc3c(C)c(Cl)ccc3[nH]2)c1 [Ex. 4.64]
2 | 486 | Cc1nc(C(=O)N2CC[C@H](C)[C@H]2c2nc3cc(Cl)cc(C)c3[nH]2)c(-c2cccc(Cl)c2)s1 [Ex. 4.28]
19 | 40 | C=C1CN(C(=O)c2nc(C)sc2-c2ccc(C)cc2)C(C)(c2nc3cc(OC)ccc3[nH]2)C1 (stereo not drawn) [Ex. 6.148]
4 | 892 | Cc1c(Cl)ccc2[nH]c([C@@H]3[C@@H](C)CCN3C(=O)c3c(F)cccc3-c3ccccc3)nc12 [Ex. 4.169]
8 | 207 | Cc1ccc(-c2nc(C)sc2C(=O)N2CC[C@H](C)[C@H]2c2nc3c(C)c(Cl)ccc3[nH]2)cc1 [Ex. 4.65]
4 | 4 | C=C1CC(c2nc3c(C)cc(C)cc3[nH]2)N(C(=O)c2cc(C)sc2-c2ccc(C)c(C)c2)C1 (stereo not drawn) [Ex. 6.76]
7 | 725 | Cc1c(Cl)ccc2[nH]c([C@@H]3[C@@H](C)CCN3C(=O)c3cc(F)ccc3-c3ccccc3)nc12 [Ex. 4.164]
13 | 6 | CO[C@@H]1C[C@@H](c2nc3c(C)c(Cl)ccc3[nH]2)N(C(=O)c2cc(C)ccc2-n2nccn2)C1 [Ex. 3.2]
2 | 65 | Cc1c(Cl)ccc2[nH]c([C@@H]3[C@@H](C)CCN3C(=O)c3cc(Cl)ccc3-n3nccn3)nc12 [Ex. 4.60]
14 | 752 | Cc1nc(C(=O)N2CC[C@H](C)[C@H]2c2nc3c(C(F)(F)F)cccc3[nH]2)c(-c2ccc(F)cc2)s1 [Ex. 4.149]
8 | 3 | C=C1C[C@@H](c2nc3c(Cl)cccc3[nH]2)N(C(=O)c2nc(C)sc2-c2ccc(C)c(C)c2)C1 [Ex. 6.51]
10 | 55 | Cc1ccc(-c2cccc(F)c2)c(C(=O)N2CCC[C@@]2(C)c2nc3cc(C(F)(F)F)ccc3[nH]2)c1 [Ex. 5.182]
8 | 591 | Cc1ccc(-c2sc(C)nc2C(=O)N2CC[C@H](C)[C@H]2c2nc3c(Cl)cccc3[nH]2)cc1 [Ex. 4.124]
1 | 81 | Cc1nc(C(=O)N2CC[C@H](C)[C@H]2c2nc3c(Cl)cccc3[nH]2)c(-c2ccc(C)c(C)c2)s1 [Ex. 4.125]
0.9 | 72 | Cc1ccc(-c2ccccc2C(=O)N2CC[C@H](C)[C@H]2c2nc3c(C)c(Cl)ccc3[nH]2)cc1 [Ex. 4.61]
8 | 30 | CCn1c([C@]2(C)CCCN2C(=O)c2cc(C)ccc2-c2ccc(C)cc2)nc2cc(C)c(C)cc21 [Ex. 7.38]
20 | 219 | Cc1ccc(-n2cccn2)c(C(=O)N2CCC[C@@]2(C)c2nc3cc(F)c(Br)cc3[nH]2)c1 [Ex. 5.128]
13 | 9650 | COc1ccccc1-c1sc(C)nc1C(=O)N1CC[C@H](C)[C@H]1c1nc2cc(C(F)(F)F)ccc2[nH]1 [Ex. 4.147]
2 | 191 | Cc1ccc(-c2ccccn2)c(C(=O)N2CC[C@H](C)[C@H]2c2nc3c(C)c(Cl)ccc3[nH]2)c1 [Ex. 4.161]

Source: US9732075B2, “Benzimidazole-proline derivatives” (IDORSIA PHARMACEUTICALS LTD, priority 2012, dated 2017)
